Assay results as given in patent publication US11400089B2, “Multikinase inhibitors and uses in reproductive and digestive tract fibrosis” (AIVIVA BIOPHARMA, INC., priority 2017, dated 2022).

Columns and labels:
TGFb-1 mRNA expression = assay: TGFb1 mRNA expression in LL37-induced mice (Example 7); format: in vivo; settings: single intradermal injection 1.6 mg, FIG. 12
Procedure: (§1) In our study, mice were injected subcutaneously with 40 μL of LL-37 (3.3 mg/mL) to induce inflammatory reactions. Immediately following the LL-37 injection, axitinib, nintedanib, and lenvatinib were individually administered as a single intradermal injection (1.6 mg). LL-37 injection was repeated every 12 hours for a total of 4 injections. Endotoxin-free water and dexamethasone (3 mg/kg by intraperitoneal injection, twice), respectively, were used as negative and positive control groups.
The TGFb1 mRNA expression in mice induced with LL37 and treated with lenvatinib was 79% of that challenged with LL37 alone (i.e., without treatment).

[1] = tested on: LL37-induced inflammation; assay: intradermal LL37 injection-induced inflammation model in mice, histopathology (Example 7); format: in vivo; settings: single intradermal injection 1.6 mg, FIG. 13
Procedure: as §1
At 48 hours after the initial LL-37 injection, the dorsal skin was photographed, and the severity of skin lesions were scored for redness and measured for areas of involvement.
The tissue samples were analyzed for inflammation characteristics. Histopathology endpoints included inflammation, and CD4+ and CD8+ T-lymphocyte immunostaining. For inflammation scores, tissues were examined histologically and scored for inflammatory cell infiltrate.

[2] = tested on: TGF beta 1 protein levels; assay: TGF beta 1 protein level (ELISA) in pig linear incision wound model (Example 6); format: in vivo, Gottingen minipigs; settings: 16 mg per wound site intradermal; Days 4, 7 and 9; FIG. 11
Procedure: Full-thickness linear incision wounds were created in Gottingen minipigs on Day 1. 10 wounds approximately 3 cm in length and spaced at least 5 cm apart were created on the dorsal surface of the animals, perpendicular to the spine. Test agents included nintedanib (2%), lenvatinib (2%), sorafenib (1%), axitinib (2%) and vehicle control. Test agents were administered by intradermal injection immediately after wound creation. The dose of nintedanib, lenvatinib, sorafenib, or axitinib was 16 mg per wound site. Three minipigs were dosed in a similar manner. One minipig was sacrificed on Day 4, one on Day 7, and one on Day 9.
At the time of sacrifice, two dermal punch biopsies (4 mm) from each side of the wound sites were collected. Two biopsies were flash frozen in liquid nitrogen and stored at −80° C. prior to processing by protein extraction and ELISA (enzyme-linked immunosorbent assay) analysis. TGF beta protein levels were measured on Days 4, 7 and 9.

[3] = tested on: testosterone and phenylephrine induced benign prostate hyperplasia; assay: testosterone and phenylephrine induced benign prostate hyperplasia in rats (Example 3); format: in vivo, Male Wistar rats; settings: for inhibition of cellular proliferation in testosterone/phenylephrine induced benign prostate hyperplasia model: 1% intra-prostate days 1 and 18, rat; for epithelial (glandular) hyperplasia score, dorsolateral prostate, representative image / epithelial (glandular) hyperplasia score, ventral prostate, representative image: TE+PE induced rats, intra-prostate 0.4 ml days 1 and 18, day 32, induced vehicle score=4; for epithelial (glandular) hyperplasia score, dorsolateral prostate, representative image: grade 0 (not present) to 5 (severe), FIG. 4; for epithelial (glandular) hyperplasia score, ventral prostate, representative image: grade 0 to 5, FIG. 5
Procedure: This study was conducted to determine the effects of multikinase inhibitors and vehicle on testosterone and phenylephrine induced benign prostate hyperplasia in rats. Male Wistar rats were induced with testosterone (2 mg/kg) plus phenylephrine (5 mg/kg) administered daily by subcutaneous injection on days 5 through 32. Vehicle or test compounds (all 1% w/v), nintedanib, sunitinib or lenvatinib and doxazosin mesylate, were administered by intra-prostate injection (0.4 ml) in dorsolateral and ventral lobes on days 1 and 18. Animals were euthanized on day 32.
At necropsy, the ventral and dorsolateral lobes of the prostate were separated and then cut into halves. The left halves were fixed in 10% neutral buffered formalin, sectioned, and stained with Hematoxylin and Eosin (H&E). Histological changes in these sections were scored. Epithelial hyperplasia was recognized as an increase in epithelial cells within normal-appearing gland profiles, primarily reflected by stratification of epithelial cells and increased presence of epithelial tufting and papillary projections. A severity grade of 0 (not present) through 5 (severe) was assigned to each sample.

[4] = tested on: full-thickness dermal wounds; assay: full-thickness dermal wounds in rabbit ear, histopathology (Example 5); format: in vivo, New Zealand White rabbits; set-up: average total score of test wounds lower than untreated/control wounds by / Neovascularization (histopathology score, treated mean) / Fibrosis/Collagen (histopathology score, treated mean) / Reepithelialization (histopathology score, treated mean) / Total Score (histopathology, treated mean): scale not given here; settings: for Fibrosis/Collagen (histopathology score, treated mean) / Neovascularization (histopathology score, treated mean) / Reepithelialization (histopathology score, treated mean) / Total Score (histopathology, treated mean): 1% intradermal dosing days 15 and 29, Day 42; for average total score of test wounds lower than untreated/control wounds by: difference treated vs control
Procedure: Test compounds were examined in full-thickness dermal wounds in rabbits. Seven male New Zealand White rabbits, ranging in body weight from 3.03 to 3.40 kg were used in this study. Four wounds were placed on the ventral surface of both ears using an 8 mm skin punch biopsy. Axitinib (1.0%), nintedanib (1.0%), lenvatinib (1.0%), sorafenib (1.0%) and sunitinib (1.0%) were administered by intradermal or intralesional injection on days 15 and 29 following surgery. Animals were euthanized on Day 42 and trauma sites were harvested and divided in half. One half was preserved in formalin for histological examination and the other half frozen for TGF beta analysis. Tissue H&E staining was evaluated semi-quantitatively for inflammation and neovascularization. Tissue fibrosis and collagen organization were evaluated by Mason's trichrome staining. Scores for four intradermal sites receiving test articles were averaged for each rabbit. Most scar tissues were composed of neovascularization, fibroblast hyperplasia, collagen disorganization and re-epithelialization.

TGF beta mRNA expression = TGF beta mRNA expression in rabbit dermal wound model (Example 5); format: in vivo, New Zealand White rabbits; settings: 1% intradermal days 15 and 29; Day 42; FIG. 10
Procedure: Test compounds were examined in full-thickness dermal wounds in rabbits. Seven male New Zealand White rabbits, ranging in body weight from 3.03 to 3.40 kg were used in this study. Four wounds were placed on the ventral surface of both ears using an 8 mm skin punch biopsy. Axitinib (1.0%), nintedanib (1.0%), lenvatinib (1.0%), sorafenib (1.0%) and sunitinib (1.0%) were administered by intradermal or intralesional injection on days 15 and 29 following surgery. Animals were euthanized on Day 42 and trauma sites were harvested and divided in half. One half was preserved in formalin for histological examination and the other half frozen for TGF beta analysis.
TGF beta mRNA expression in treated trauma samples was compared to expression in untreated samples. In general, TGF beta expression in treated samples was lower relative to untreated trauma samples.

[5] = tested on: suture induced ocular fibrosis; assay: suture induced ocular fibrosis model in rabbits (Example 4); format: in vivo; settings: for areas of neovascularization on the corneal surface: 0.3% topical 35 μL/eye three times daily for 10 days, FIG. 8; for fibroplasia and/or collagen density (histological staining) / alpha SMA staining (immunohistochemical analysis): 0.3% topical three times daily for 10 days, FIG. 9; for fibroplasia and/or collagen density (histological staining): Day 11; for alpha SMA staining (immunohistochemical analysis): relative to vehicle
Procedure: A study was conducted to determine the potential beneficial effects of topical administration of test compounds and vehicle in a suture induced ocular fibrosis model in rabbits. Sutures were placed intrastromally, under a microscope, in the cornea of rabbits. In each eye, one 9.0 silk suture was placed, in a vertical position, temporal to the center of the cornea and a second suture was placed nasal to the corneal center. Each suture had two stromal incursions approximately 2 mm from the limbus. Test compounds having a certain spectrum of multikinase inhibition activities or vehicle were topically instilled (35 μL/eye) in the eyes three times daily for 10 days following the day of surgery. The treatment groups include vehicle, axitinib (0.3%), nintedanib (0.3%), pirfenidone (1%), riociguat (0.3%), sorafenib (0.3%) and lenvatinib (0.3%). Six left eyes were used per treatment group.
During the in-life phase, gross ocular observations of very slight to moderate conjunctival congestion and swelling were similar among groups, including the vehicle control. The animals were sacrificed on Day 11 and eyes enucleated and dissected for histopathological evaluation.

[6] = 1% intradermal, rabbit ear wound

Compound | TGFb1 mRNA expression relative to LL37 alone (without treatment) (TGFb-1 mRNA expression) [%] | TGFb-1 mRNA expression among all treatment groups (TGFb-1 mRNA expression) | inflammation scores (inflammatory cell infiltrate) [1] | TGF beta 1 protein levels in wound [2] | inhibition of cellular proliferation in testosterone/phenylephrine induced benign prostate hyperplasia model [3] | epithelial (glandular) hyperplasia score, dorsolateral prostate, representative image [3] | epithelial (glandular) hyperplasia score, ventral prostate, representative image [3] | Fibrosis/Collagen (histopathology score, treated mean) ([4]; rabbit ear wound) | Neovascularization (histopathology score, treated mean) ([4]; rabbit ear wound) | Reepithelialization (histopathology score, treated mean) ([4]; rabbit ear wound) | Total Score (histopathology, treated mean) ([4]; rabbit ear wound) | average total score of test wounds lower than untreated/control wounds by ([4]; 1% intradermal) | angiogenesis and fibrosis at treated trauma sites (histopathology summary) [4, 6] | fibrosis compared with control wound sites [4, 6] | mean folds of TGF beta mRNA expression vs untreated trauma samples (TGF beta mRNA expression) | areas of neovascularization on the corneal surface [5] | fibroplasia and/or collagen density (histological staining) [5] | alpha SMA staining (immunohistochemical analysis) [5] | neovascularization compared with untreated wounds [4, 6] | scar formation overall compared with control sites [4, 6]
COc1cc2nccc(Oc3ccc(NC(=O)NC4CC4)c(Cl)c3)c2cc1C(N)=O [lenvatinib] | 79 | lowest TGFb-1 mRNA expression | prominent reductions in the scores of inflammation | time-dependent inhibition of TGF beta 1 protein levels | effective inhibitors of cellular proliferation | 2 | 3 | 2.5 | 2 | 0 | 4.5 | 0.5 | decreased angiogenesis and fibrosis | decreased fibrosis compared to control wound sites | lower than the expression level in untreated trauma samples | efficacious in reducing the areas of neovascularization | significantly reduced fibroplasia and/or collagen density | significantly reduced alpha SMA staining | – | –
COC(=O)c1ccc2c(c1)NC(=O)/C2=C(\Nc1ccc(N(C)C(=O)CN2CCN(C)CC2)cc1)c1ccccc1 [nintedanib] | – | – | prominent reductions in the scores of inflammation | time-dependent inhibition of TGF beta 1 protein levels | effective inhibitors of cellular proliferation | 3 | 3 | 3 | 1 | 0.5 | 4.5 | 1.5 | decreased angiogenesis and fibrosis | about the same fibrosis as untreated wounds | lower than the expression level in untreated trauma samples | efficacious in reducing the areas of neovascularization | significantly reduced fibroplasia and/or collagen density | significantly reduced alpha SMA staining | much less neovascularization | less scar formation compared with the control sites
